Reference: PubChem BioAssay AID1386 (Sanford-Burnham Center for Chemical Genomics, 2008)

System: mouse primary cortical neurons, thapsigargin death, survival counting
Test: ER stress death suppression in cortical neurons – imaging, mouse primary cortical neurons, immunostaining, death counting, ER stress cell death inhibitors, late-stage follow-up (AID 1386)
Details: at 25 µM

`COc1ccc(C2CC(=O)C3=C(C2)Nc2ccccc2NC3c2cccc(Oc3ccccc3)c2)cc1OC` (configuration not stated) was tested, and the survival (stronger effect = higher value) was 87% and the survival (measured here: survival without thapsigargin) was 91%.
